PubChem BioAssay AID720601 (Broad Institute, 2013)
Records with an inconclusive call do not appear. The source made the active and inactive calls.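 Rule for the calls: active = compounds lowering the viability dye signal with a fitted AC50 within twice the top dose in all three time points; inconclusive = time points disagree in their calls; inactive = inactive at every time point, including signal rises.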

Assays:
[1] = cytotoxicity in immortalized mouse myoblasts – cell-based, Alamar Blue fluorescence, 8/24/48 h, dry powder, cytotoxicity control for HRAS target identification, dose response (AID 720601); details: C2C12 mouse myoblast viability, Alamar Blue, 8/24/48 h, at 35 µM, stronger effect = lower value
[2] = system: C2C12 mouse myoblast viability, Alamar Blue, 8/24/48 h; test: as above

CCC(=O)N(c1ccc(OC)c(Cl)c1)C(C(=O)NCCc1ccccc1)c1cccs1 (stereo not given)
activity ([1]; 8 h viability change): 0.483%
activity ([1]; 24 h viability change): -13.2%
AC50 [2]: > 70 µM (inactive)

Cc1onc(C(=O)N2CCN(C(c3ccncc3)c3ccncc3)CC2)c1[N+](=O)[O-]
activity ([1]; 8 h viability change): -0.518%
activity ([1]; 24 h viability change): -6.22%
